Assay results taken from patent US7160992B2, “Amino-modified polysaccharides and methods of generating and using same” (Yeda Research and Development Co., Ltd., priority 2003, dated 2007).
≈ marks a conversion by molar mass, not a printed value. Where “and” joins values, the source holds several entries; their conditions need not be identical. Equal values may be shown once. Read-outs that look alike come from different tables or passages of the source.

Assays:
TAR = settings: in contrast to Tat peptide (R52) or AACs; cited from earlier work
TAR or RRE RNAs = settings: cited from earlier work
S. aureus = assay: Minimal inhibitory concentration, serial two-fold dilutions in TSB; assay type: cell-based
RRE IIB RNA = assay: Fluorescence anisotropy: RhdRev binding and AAC competition for RRE IIB RNA; set-up: species or system HIV-1
cMAGI cells = assay: Competition between FITC-labelled AACs and RANTES; assay type: cell-based; settings: 2.5 mM RANTES
Protocol: Competition between FITC labelled AACs (1 mM) and RANTES (2.5 mM, Pepro Tech Inc., New Jersey, USA) was effected in 2×10^5 cMAGI cells. Following 30 min of incubation, cells were washed with ice-cold wash buffer and analysed by flow cytometry as described above.

E. coli = assay: Minimal inhibitory concentration, serial two-fold dilutions in TSB; assay type: cell-based
HIV-1IIIB wild type = assay: Inhibition of HIV-1IIIB wild type in MT2 or cMAGI cells; assay type: cell-based
Excerpt: (§1) The cMAGI assay is based on the ability of HIV-1 TAT to transactivate the expression of an integrated β-galactosidase reporter gene driven by the HIV-LTR [Chackerian, B. et al., 1997. J Virol. 71: 3932–3939; Collins, K. B. et al., 2000. Nat. Med. 6: 475–479]. The β-galactosidase reporter has been modified to remain localized in the nucleus where it can be detected with the X-gal substrate as an intense nuclear stain within a few days of infection. The X-gal substrate used was 5-bromo-4-chloro-3-indoyl-beta-D-galactopyranoside. HIV1IIIB was propagated by subculture in MT2 as described previously [Litovchick (2001) Supra]. Aliquots of cell-free culture supernatants were used as viral inoculum. […] The cytopathic effects of the viral infection of MT2 cells were analyzed by microscopic assessment of syncytium formation. These latter data were obtained by analysis of duplicate samples by two independent observers. HIV-1 infection of cMAGI cells was determined by counting the number of HIV-1 infected cells (stained blue).

CCR5 = target: T1, CCR5 (Homo sapiens, UniProt P51681); settings: PHA stimulated peripheral blood lymphocytes; cited from earlier work
T1 construct: in PHA stimulated peripheral blood lymphocytes (PBL); host or cells: PHA stimulated peripheral blood lymphocytes (PBL)

Gram-positive bacteria = assay: Minimal inhibitory concentration, Gram-positive bacteria as a group; assay type: cell-based; settings: range over susceptible Gram-positive bacteria
[1] = tested on: U38, PM1, H9 cells and PBMC; assay: Cellular uptake of AAC-FITC fluorescent probes, fluorescence microscopy; assay type: cell-based; settings: 0.5 μM, 10 minutes of incubation
Protocol: Images were obtained using a Zeiss Axiophot microscope.
Cellular uptake using AAC fluorescent probes—U38, PM1, H9 cells and PBMC(10^5) were incubated for 20 minutes at room temperature in 100 μl RPMI 1640 medium (Gibco-BRL, Life-Technologies, UK) including AAC-FITC derivatives as indicated at a final concentration of 0.5 μM. Cells were washed twice, resuspended in 100 μl medium and analyzed with a Zeiss Axiophot fluorescent microscope.

E. faecalisr = assay: Minimal inhibitory concentration, serial two-fold dilutions in TSB; assay type: cell-based
P. aeruginosa = assay: as above; assay type: cell-based
TAR RNA = assay: Fluorescence anisotropy: RhdRev binding and AAC competition for TAR RNA; set-up: species or system HIV-1
S. epidermidis = assay: Minimal inhibitory concentration, serial two-fold dilutions in TSB; assay type: cell-based
[2] = tested on: lymphocytes, PBMC and neurons; settings: cited from earlier work
CXCR4 = target: T2, CXCR4 (Homo sapiens, UniProt P61073); assay: Inhibition of anti-CXCR4 mAb 12G5 binding to cells, flow cytometry; assay type: cell-based; settings: for reduction of 12G5 mAb binding to the cells / median fluorescence intensity (MFI) of PE-12G5 in presence of AAC: 10 μM AAC; for reduction of 12G5 mAb binding to the cells: PM1 cells, 30 min at 4° C.; for median fluorescence intensity (MFI) of PE-12G5 in presence of AAC: mAb alone 451, isotype control 30
T2 construct: endogenous in cells; host or cells: PM1 cells and PBMC
Protocol: FIGS. 11a–d are graphs depicting the binding of AACs to CXCR4 in the presence of anti CXCR4 antibody (12G5). PM1 cells were incubated with PE-conjugated isotype control mAb, PE-anti CXCR4 conjugated mAb (12G5) alone, or in the presence of the indicated AACs for 30 min at 4° C. The cells were then washed twice with PBS and analyzed by flow cytometry. The MFI values are shown in parenthesis.
Interaction of AACs with CXCR4 was determined by flow cytometry (FACScan, Becton Dickinson) as described recently (Litovchick et al., 2001, supra). Briefly, 0.5×10^6 cells were washed in ice-cold PBS containing 0.1% sodium azide (wash buffer) and incubated at 4° C. with anti-CXCR4 mAb, 12G5 (PharMingen, San Diego, Calif.) conjugated to phycoerithrine (PE), in the absence or presence of different concentrations of the AACs. After 30 min of incubation, the cells were washed with ice-cold wash buffer and fixed in PBS containing 1% paraformaldehyde. Non-specific fluorescence was assessed by using isotype-matched control. For each sample 10,000 events were acquired. Data were analyzed and processed using CellQuest™ software (Becton Dickinson).

CD4 = target: T3, CD4 (Homo sapiens, UniProt P01730); settings: PHA stimulated peripheral blood lymphocytes; cited from earlier work
T3 construct: in PHA stimulated peripheral blood lymphocytes (PBL); host or cells: PHA stimulated peripheral blood lymphocytes (PBL)

ICR (CD-1) mice = assay: Acute intravenous toxicity of NeoR6 in mice; assay type: in vivo
Protocol: Injection volumes applied ranged from 4–10 ml/kg
Observation of clinical signs post-NeoR6 injection—On the day of injection, careful clinical examinations were carried out continuously during the first 90 minutes post-injection. Thereafter, animals were inspected at least once a day for 14 consecutive days. Observations included changes in the skin and fur, eyes and mucous membranes, respiratory, circulatory, autonomic and central nervous systems, somatomotor activity and behavior pattern with particular attention to occurrence of tremors, convulsions, salivation, diarrhea, lethargy, sleep and coma.
Necropsy and Gross Pathology—All test animals, including decedents were subjected to gross necropsy. At necropsy all animals were thoroughly examined for abnormality of tissues or organs. All major body cavities were opened, larger organs were sectioned and the gastro-intestinal tract was opened at intervals for examination of the mucosal surfaces. The normal appearance of major organs was confirmed for each animal and any gross pathological changes or abnormalities were described.

B. subtilis = assay: Minimal inhibitory concentration, serial two-fold dilutions in TSB; assay type: cell-based
HIV-1 isolates = settings: Cabrera et al., 2002; cited from earlier work
[3] = tested on: NeoR6 resistant HIV-1 isolates; assay: Inhibition of NeoR6 resistant HIV-1 isolates in MT2 or cMAGI cells; assay type: cell-based
Excerpt: as §1
Culture fluids were replaced […] weekly with fresh medium containing an appropriate drug concentration. […] From the final cycle of each experiment the resistant virus was propagated as described above.

HIV-1 clade C = assay: Replication of HIV-1 clade C in MT2 cells, tetrazolium viability; assay type: cell-based; settings: present throughout infection or only the first two hours; NeoR6 2–20 μM, R3G 5–40 μM
Protocol: Infected cells were washed, seeded in 96-well plate (5×10^4 cells per well) and incubated for 4 days in the absence or presence of various drug concentrations, until syncytia were observed (>25% ctu). Cell viability was measured by tetrazolium-based colorimetric method. The results shown are mean ±standard deviation of triplicates. Circles denote the presence of AACs during the infection step and after the cells were washed; Squares denote the presence of AACs only during the first 2 hours prior to washing.

[4] = HIV-1IIIB wt, mean and standard deviation of three separate experiments, read-out: EC50, Wild-type
[5] = NeoR6 resistant isolates after 25 passages, mean and standard deviation of three separate experiments, read-out: EC50, NeoR6RES

T2 sequence (P61073 whole entry): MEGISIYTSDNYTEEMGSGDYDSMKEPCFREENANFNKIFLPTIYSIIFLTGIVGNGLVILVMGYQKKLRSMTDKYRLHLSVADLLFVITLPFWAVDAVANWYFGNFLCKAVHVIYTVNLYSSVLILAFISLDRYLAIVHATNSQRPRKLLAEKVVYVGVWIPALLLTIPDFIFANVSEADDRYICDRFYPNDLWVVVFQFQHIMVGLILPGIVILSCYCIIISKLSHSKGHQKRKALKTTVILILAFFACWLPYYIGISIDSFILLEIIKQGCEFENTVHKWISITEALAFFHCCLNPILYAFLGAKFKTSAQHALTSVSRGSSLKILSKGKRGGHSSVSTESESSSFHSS
T1 sequence (P51681 whole entry): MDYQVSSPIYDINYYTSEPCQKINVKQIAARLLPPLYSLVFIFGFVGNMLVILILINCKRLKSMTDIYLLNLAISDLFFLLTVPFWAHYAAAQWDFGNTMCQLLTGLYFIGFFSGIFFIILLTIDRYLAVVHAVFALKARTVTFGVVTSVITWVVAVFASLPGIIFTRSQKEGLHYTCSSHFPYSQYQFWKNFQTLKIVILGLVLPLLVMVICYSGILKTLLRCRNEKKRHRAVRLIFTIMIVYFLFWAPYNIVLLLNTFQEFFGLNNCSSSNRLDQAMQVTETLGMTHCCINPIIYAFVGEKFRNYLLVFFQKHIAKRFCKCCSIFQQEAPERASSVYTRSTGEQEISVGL

For `N=C(N)NCCCC(=O)NCC1OC(OC2C(NC(=O)CCCNC(=N)N)CC(NC(=O)CCCNC(=N)N)C(OC3OC(CO)C(O)C(NC(=O)CCCNC(=N)N)C3O)C2O)C(O)C(O)C1O` (stereo not drawn) [GB4K, kanamycine A conjugated to four γ-guadinno butiric acid], the “protection of the bulge region of TAR from RNase A cleavage” value (TAR) is listed as “cannot protect the bulge region of TAR from RNase A cleavage” and the “affinity to TAR or RRE RNAs (in words)” value (TAR or RRE RNAs) is listed as “very low affinity”.

For `NC(N)=NCCC[C@H](N)C(=O)NC[C@@H]1OC(O[C@H]2[C@@H](O)[C@H](O[C@@H]3[C@@H](O)[C@H](NC(=O)[C@@H](N)CCCN=C(N)N)C[C@H](NC(=O)[C@@H](N)CCCN=C(N)N)[C@H]3O[C@H]3O[C@H](CNC(=O)[C@@H](N)CCCN=C(N)N)[C@@H](O)[C@H](O)[C@H]3NC(=O)[C@@H](N)CCCN=C(N)N)O[C@@H]2CO)[C@H](NC(=O)[C@@H](N)CCCN=C(N)N)[C@@H](O)[C@@H]1O` (stereo partly drawn) [NeoR6, Neomycin hexa-arginine conjugate], the “MIC” value (S. aureus) was 6.25 µg/mL (≈ 4.03 µM), the Kd (RRE IIB RNA; competition of AACs with RhdRev (10 nM) for RRE IIB RNA (20 nM) binding, 85 mM NaCl) was 23 nM and 23.3 nM and the IC50 (RRE IIB RNA; competition of AACs with RhdRev for RRE IIB RNA binding) was 72.7 ± 10.1 nM. For the same compound, the “effect of RANTES on uptake of FITC derivative” value (cMAGI cells) was “did not affect uptake”, the “MIC” value (E. coli) was 100 µg/mL (≈ 64.4 µM) and the EC50 (HIV-1IIIB wild type; [4]) was 1900 nM. The “inhibition of binding of 2D7, a mAb directed to CCR5” value (CCR5) was “neither R3G nor R4K or NeoR6 inhibit the binding”, the “MIC values, Gram-positive bacteria” value (Gram-positive bacteria) was 0.78 to 6.25 µg/mL and the “cellular uptake of FITC-labeled AAC by PM1 cells” value [1] was “uptaken by PM1 cells”. The “MIC (mg/L)” value (E. faecalisr) was “≧200 mg/L”, the “MIC” value (P. aeruginosa) was 100 µg/mL (≈ 64.4 µM) and the Kd (TAR RNA; competition of AACs with RhdRev (10 nM) for TAR RNA (20 nM) binding, 85 mM NaCl) was 5 nM. For the same compound, the IC50 (TAR RNA; competition of AACs with RhdRev for TAR RNA binding) was 19.9 ± 2.7 nM, the “competition with RhdRev for TAR RNA binding (in words)” value (TAR RNA; up to 20 μM of AAC) was “efficiently competed” and the “MIC” value (S. epidermidis) was 0.78 µg/mL (≈ 0.503 µM). For the same compound, the accumulation in cells [2] was “accumulate in different cell types”, the “reduction of 12G5 mAb binding to the cells” value (CXCR4) was 90% and the “median fluorescence intensity (MFI) of PE-12G5 in presence of AAC” value (CXCR4) was 76. The “inhibition of binding of anti CD4 antibody (Leu 3a)” value (CD4) was “neither R3G nor R4K or NeoR6 inhibit the binding”, the adverse effects (ICR (CD-1) mice; 50 mg/kg as 2 successive injections, interdosing interval of 3 hours) was “did not cause any adverse effects other than a very transient reduction in respiratory rate and spontaneous motor activity” and the “weight gain (in words)” value (ICR (CD-1) mice; 14-day observation period, all mice except 2 females (10 or 30 mg/kg)) was “normal mode of weight gain”. The “maximum tolerated dose (MTD)” value (ICR (CD-1) mice; acute IV administration) was 30 to 35 mg/kg, the “pathological findings at necropsy” value (ICR (CD-1) mice; decedent and surviving animals) was “no pathological findings” and the “Weight Gain (gr.) (Day 1–15)” value (ICR (CD-1) mice; group 2F, 1 female, 15 mg/kg single bolus) was 4.3 gr. The “Weight Gain (gr.) (Day 1–15)” value (ICR (CD-1) mice; group 3F, 1 female, 25 mg/kg single bolus) was 5.3 gr, the “Weight Gain (gr.) (Day 1–15)” value (ICR (CD-1) mice; group 4F, 2 females, 30 mg/kg single bolus, one survivor) was 1.6; — gr and the clinical signs (ICR (CD-1) mice; single IV 30 and 35 mg/kg, confined to the first 10 min after dosing) was “respiratory and motoric irregularities”. For the same compound, the mortality (ICR (CD-1) mice; single female mouse, 30 mg/kg IV) was “died within the first five minutes post-injection”, the reaction to treatment (ICR (CD-1) mice; single intravenous administration, 10, 15 and 25 mg/kg) was “No obvious reaction to treatment” and the “toxicity when given intravenously” value (ICR (CD-1) mice; two single doses of 25 mg/kg of body weight over the course of 2 hours) was “non-toxic”. The “MIC” value (B. subtilis) was 1.56 µg/mL (≈ 1.01 µM).

For SDF-1α, the EC50 (HIV-1IIIB wild type; [4]) is listed as 200 ± 50 nM, the EC50 (HIV-1IIIB wild type; wt HIV-1 isolate, text of b338) is listed as 1 µg/mL and the “anti-HIV-1 EC50, fold lower than that of NeoR6” value (HIV-1 isolates) is listed as roughly 70 fold. The EC50 ([3]; NeoR6 resistant HIV-1 isolates, text of b338) was 1 µg/mL, the EC50 [3, 5] was 180 ± 70 nM and the “inhibition of PE-12G5 binding to PM1 cells by SDF-1α” value (CXCR4; 62.5 and 125 nM SDF-1α, control) was “inhibited significantly”.

In the case of `CNC(C)C1CCC(NC(=O)C(N)CCCNC(=N)N)C(OC2C(NC(=O)C(N)CCCNC(=N)N)CC(NC(=O)C(N)CCCNC(=N)N)C(OC3OCC(C)(O)C(NC)C3O)C2O)O1` (stereo not drawn) [R3G, tri-arginine gentamycin C1 conjugate, reference compound], the EC50 (HIV-1IIIB wild type; [4]) is given as 4100 ± 2400 nM, the “inhibition of binding of 2D7, a mAb directed to CCR5” value (CCR5) is given as “neither R3G nor R4K or NeoR6 inhibit the binding” and the “inhibition of viral proliferation (in words)” value (HIV-1 clade C) is given as “could inhibit viral proliferation”. The EC50 [3, 5] was 21000 ± 8800 nM, the “times more resistant than the wild type virus” value ([3]; NeoR6 resistant isolates, following 25 passages) was roughly 5 and the accumulation in cells [2] was “accumulate in different cell types”. For the same compound, the “reduction of 12G5 mAb binding to the cells” value (CXCR4) was 84%, the “median fluorescence intensity (MFI) of PE-12G5 in presence of AAC” value (CXCR4) was 89 and the “inhibition of binding of anti CD4 antibody (Leu 3a)” value (CD4) was “neither R3G nor R4K or NeoR6 inhibit the binding”.
